Results published in patent publication US4276298A, “2-Aryl-1,2-benzisothiazolinone-1,1-dioxides and their use as selective protease inhibitors” (Merck & Co., Inc., priority 1979, dated 1981).
Where two headings read alike, the source gives them in different places.

What was measured:
[1] = biological target: T1, Porcine Pancreatic Elastase (Sus scrofa, UniProt P00772); test: Porcine pancreatic elastase inhibition (Boc-AAPAN hydrolysis, 410 mμ); type: biochemical; settings: 0.2 mM Boc-AAPAN, pH 7.5, purified PPE; read-out: ID50 Porcine Pancreatic Elastase (converted)
T1 construct: purchased Worthington
T1 sequence (P00772 27-266): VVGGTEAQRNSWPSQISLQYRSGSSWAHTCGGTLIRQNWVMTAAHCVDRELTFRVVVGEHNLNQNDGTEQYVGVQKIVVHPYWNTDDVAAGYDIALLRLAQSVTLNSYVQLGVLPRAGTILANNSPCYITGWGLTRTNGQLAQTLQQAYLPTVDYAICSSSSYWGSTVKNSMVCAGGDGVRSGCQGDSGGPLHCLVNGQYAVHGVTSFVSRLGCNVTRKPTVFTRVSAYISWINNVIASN

Trypsin = biological target: T2, Trypsin (Bos taurus, UniProt P00760); test: Trypsin inhibition (BAPA hydrolysis, 410 mμ); type: biochemical, bovine
T2 construct: purchased Worthington TRL
T2 sequence (P00760 24-246): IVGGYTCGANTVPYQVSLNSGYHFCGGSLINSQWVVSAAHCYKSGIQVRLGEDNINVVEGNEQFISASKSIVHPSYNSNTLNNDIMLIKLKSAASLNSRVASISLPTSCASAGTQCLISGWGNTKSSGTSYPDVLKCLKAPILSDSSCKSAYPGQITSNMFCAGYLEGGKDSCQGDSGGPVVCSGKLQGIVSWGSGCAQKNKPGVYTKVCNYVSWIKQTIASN

Chymotrypsin = biological target: T3, Chymotrypsin (Bos taurus, UniProt P00766); test: Chymotrypsin inhibition (Ac-AAPPhN hydrolysis, 410 mμ); type: biochemical, bovine
T3 construct: purchased Worthington
Procedure: a-Chymotrypsin (Worthington, 3X crystallized, lyophilized) at 100 μg/ml in 0.001 M HCl (1 mg/ml by wt. diluted 1:10)
0.2 mM N-Acetyl-Alanyl-Alanyl-Prolyl-Phenylalanyl-p-nitroanilide=Ac-AAPPhN.To prepare substrate, the solid (M.W. 566) was first dissolved in 10.0 ml DMSO. Buffer at pH 7.5 was then added to a final volume of 100 ml.
(§1) Inhibitors to be tested dissolved in DMSO just before use.
To 1.0 ml of 0.2 mM Ac-AAPPhN in a cuvette, 0.01-0.05 ml of DMSO with or without inhibitor was added. After mixing, a measurement was taken at 410 mμ to detect any spontaneous hydrolysis due to the presence of test compound. 0.01 ml of α-chymotrypsin solution was then added and the ΔOD/min at […] was measured and recordeed. A Gilford 240 240 spectrophotometer was used.
Results were obtained as % inhibition produced by test compound as represented by the % decrease in ΔOD/min of a control. The ID50 was then derived from the % inhibition curve.

Human PMN Elastase = biological target: T4, Human PMN Elastase (Homo sapiens, UniProt P08246); test: Human PMN elastase inhibition (Boc-AAPAN hydrolysis, 410 mμ); type: biochemical; settings: 0.2 mM Boc-AAPAN, pH 7.5, crude human PMN extract; read-out: ID50 Human PMN Elastase (converted)
T4 construct: Crude extract of human polymorphonuclear leukocytes (PMN) containing elastase activity; from tissue; host or cells: human polymorphonuclear leukocytes (crude extract)
T4 sequence (P08246 30-267): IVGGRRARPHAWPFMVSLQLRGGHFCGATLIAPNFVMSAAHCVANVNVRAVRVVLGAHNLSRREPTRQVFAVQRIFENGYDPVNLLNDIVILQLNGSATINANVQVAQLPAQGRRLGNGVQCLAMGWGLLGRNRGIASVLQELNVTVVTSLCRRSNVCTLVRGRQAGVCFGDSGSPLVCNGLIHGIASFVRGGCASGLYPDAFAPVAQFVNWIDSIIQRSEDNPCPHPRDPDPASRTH
Procedure: N-tris (hydroxymethyl) methyl-2-aminoethane sulfonic acid
0.2 mM N-t-Box-Alanyl-Alanyl-Prolyl-Alanine-p-nitroanilide=Boc-AAPAN
To prepare substrate, the solid (m.w. 550) was first dissolved in 10.0 ml. DMSO. Buffer at pH 7.5 was then added to a final volume of 100 ml.
Crude extract of human polymorphonuclear leukocytes (PMN) containing elastase activity.
as §1
To 1.0 ml. of 0.2 mM Box-AAPAN in a cuvette, 0.01-0.1 ml. of DMSO with or without inhibitor was added. After mixing, a measurement was taken at 410 mμ to detect any spontaneous hydrolysis due to presence of test compound. 0.05 ml. of PMN extract was then added and the ΔOD/min at 410 mμ was measured and recorded. A Gilford 240 or Beckman DB-G spectrophotomer was used.
Results were obtained as % inhibition produced by test compound as represented by the % decrease in ΔOD/min. of a control. The ID50 was then derived from the % inhibition curve.
The elastase activity in the crude PMN extract may vary from one preparation to another. A control of each new batch is run and the volume added in the assay procedure is adjusted according to activity.

Human PMN Cathepsin G = biological target: T5, Human PMN Cathepsin G (Homo sapiens, UniProt P08311); test: Human PMN cathepsin G inhibition (BTNP hydrolysis, 347.5 mμ); type: biochemical; settings: 0.2 mM BTNP, pH 6.5, purified human PMN extract; read-out: ID50 Human PMN Cathepsin G (converted)
T5 construct: Purified extract of human polymorphonuclear leukocytes (PMN) containing chymotrypsin-like activity; from tissue; host or cells: human polymorphonuclear leukocytes (purified extract)
T5 sequence (P08311 21-255): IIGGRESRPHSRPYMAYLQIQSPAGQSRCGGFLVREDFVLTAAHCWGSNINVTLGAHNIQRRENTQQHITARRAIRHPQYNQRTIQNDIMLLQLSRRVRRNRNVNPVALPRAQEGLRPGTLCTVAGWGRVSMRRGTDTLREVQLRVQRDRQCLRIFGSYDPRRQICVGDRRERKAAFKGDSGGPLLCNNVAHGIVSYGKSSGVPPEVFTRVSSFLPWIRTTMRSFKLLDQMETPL

[2] = tested on: trypsin, chymotrypsin, plasmin, kallikrein, elastase, and thrombin; settings: glycoprotein in human serum; cited from earlier work
papain = settings: cited from earlier work
Papain induced emphysema = settings: hamster; cited from earlier work
[3] = 1.0 mM BAPA, pH 7.5, read-out: ID50 Trypsin (converted)
[4] = 0.2 mM Ac-AAPPhN, pH 7.5, α-chymotrypsin, read-out: ID50 Chymotrypsin (converted)

Molecule	IC50 (Human PMN Elastase) [µM]	IC50 (Trypsin; [3]) [µM]	IC50 (Chymotrypsin; [4]) [µM]	IC50 (Human PMN Cathepsin G) [µM]	IC50 [1] [µM]	IC50 (Trypsin) [µM]	IC50 (Chymotrypsin) [µM]	inhibitory spectrum [2]	inhibition of papain (papain)	inhibition of papain induced emphysema (Papain induced emphysema)
O=C1c2ccccc2S(=O)(=O)N1c1c(F)c(F)c(F)c(F)c1F	2.86				143	143	143			
O=C1c2ccccc2S(=O)(=O)N1c1ccc([N+](=O)[O-])cc1 [reference compound]	164				329	329	329			
O=C(c1cccs1)N1C(=O)c2ccccc2S1(=O)=O [reference compound]	0.341	0.0682			0.682		0.682			
N#Cc1cc([N+](=O)[O-])ccc1N1C(=O)c2ccccc2S1(=O)=O	3.04		0.607	45.6	60.7	60.7				
O=C1c2ccccc2S(=O)(=O)N1c1ccc([N+](=O)[O-])cc1[N+](=O)[O-]	2.86				143	143	1.43			
α1 -Antitrypsin: a glycoprotein in human serum								wide inhibitory spectrum	not inhibited	inhibited
CCC(CC)C(=O)N1C(=O)c2ccccc2S1(=O)=O [reference compound]	0.355	3.55	0.142		1.07					

More lines, main results first:

IC50 (Human PMN Elastase) [µM]	IC50 (Trypsin; [3]) [µM]	IC50 (Chymotrypsin; [4]) [µM]	IC50 (Human PMN Cathepsin G) [µM]	Molecule	IC50 [1] [µM]	IC50 (Trypsin) [µM]	IC50 (Chymotrypsin) [µM]	inhibitory spectrum [2]	inhibition of papain (papain)	inhibition of papain induced emphysema (Papain induced emphysema)
0.361	1.8	0.0721		O=C(c1ccco1)N1C(=O)c2ccccc2S1(=O)=O [reference compound]	0.721					
4.85	162	3.23	162	N#Cc1ccc(N2C(=O)c3ccccc3S2(=O)=O)c(C#N)c1	162					
10.5		59.6		N#Cc1ccc(N2C(=O)c3ccccc3S2(=O)=O)nc1						
0.422	1.69	0.295	4.22	C=CC(=O)N1C(=O)c2ccccc2S1(=O)=O [reference compound]	0.843					
1.64	65.5	0.655		O=C1c2ccccc2S(=O)(=O)N1c1ncccc1[N+](=O)[O-]	65.5					
